Series [1] relates to breast cancer cell line MX-1. The experiment in a line: MX-1 cell line proliferation assay. In kind it is cell-based. As to conditions: Homo sapiens, MX1, 72 h, MX-1 cells, 3-day proliferation assay, Cell Titer Glo; read-out: Cellular proliferation EC50. An outline of the steps:
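Cells seeded at 5000/well in RPMI 1640 with 10% FBS, allowed to adhere overnight at 37 °C, then exposed to compound at final 0.0001–3 μM for 3 days. Viability read by Cell Titer Glo luminescence, normalized to DMSO controls; EC50 from sigmoidal curve fit.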
On the technique in general: In ATP-based viability assays light output follows the ATP content of the culture.

In a further series the target is T1, BRD4 (BDI_K57-E168) (Homo sapiens, UniProt O60885).
T1 construct: BD1: amino acids K57-E168; made in house
The series is described as follows: TR-FRET bromodomain binding assay, first bromodomain of BRD4. Conditions: His-tagged BD1, 100 nM Alexa647 probe; TR-FRET protocol A-E given per row. The essentials:
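His-tagged BRD4 BD1 (K57-E168), 8 nM, with 1 nM Eu-anti-His antibody and 100 nM Alexa647-labelled BET-inhibitor probe in pH 6.0 phosphate buffer, 2% DMSO. TR-FRET read after 1 h at room temperature. IC50 from 4-parameter fit, converted to Ki using probe Kd and concentration.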
For orientation: TR-FRET usually uses a lanthanide donor and a delayed reading to cut background.

For another series, the target named is T2, BRD4 (BDII_E352-M457) (Homo sapiens, UniProt O60885).
T2 construct: proliferation; Protocol; made in house
The experiment in a line: TR-FRET bromodomain binding assay, second bromodomain of BRD4. Conditions: His-tagged BD2, 30 nM Alexa647 probe; TR-FRET protocol A-E given per row. An outline of the steps: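 His-tagged BRD4 BD2 ([…]) competed against an Alexa647-labelled BET-inhibitor probe in TR-FRET. Buffer was 20 mM sodium phosphate pH 6.0, 50 mM NaCl, 1 mM EDTA, 0.01% Triton X-100, 1 mM DTT, with method D DMSO series of 2.5 mM–800 nM (stock range). IC50 from 4-parameter fit, Ki from probe Kd and concentration.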

In series [2] the test system is LPS induced IL-6 production. The series is described as follows: LPS (lipopolysaccharide) induced IL-6 production mouse assay. In kind it is in vivo. Conditions: read-out: Inhibition of LPS induced IL-6 production, % inhibition at 3 mg/kg, 3 mg/kg oral, one hour before LPS 2.5 mg/kg i.p., serum IL-6 2 hours after LPS, SCID female mice, all p < 0.05. As for the experimental part:
Compounds of the Examples listed in Table 2 were assayed for their ability to inhibit LPS (lipopolysaccharide) induced IL-6 (Interleukin-6) production in mice. Fox Chase SCID® female mice (Charles Rivers Labs, 5 per group) received an intraperitoneal challenge of lipopolysaccharide (2.5 mg/kg, L2630 E. coli 0111:B4) one hour after oral administration of compounds. Mice were euthanized 2 hours after lipopolysaccharide injection, blood was removed by cardiac puncture, and then the serum harvested from the blood samples was frozen at −80° C. On the day of the assay the serum samples were brought to room temperature and then diluted 1:20 in phosphate-buffered saline containing 2% bovine serum albumin. Interleukin-6 measurements were performed using a cytokine assay from Meso Scale Discovery (Gaithersburg, Md.) for mouse serum analysis according to the manufacturer's protocol and read on a SECTOR Imager 6000 (Meso Scale Discovery, Gaithersburg, Md.) instrument. Statistical analysis was performed using Prism software (version 5.0) incorporating Dunnett's one way ANOVA. The IL-6 mean and standard deviation of the group of vehicle treated animals were compared with the IL-6 mean and standard deviation of the group treated with drug. A p value <0.05 means that there is less than a 5% probability that the mean values in the two groups are equal.

The subject of the next series is OPM-2 xenograft tumors. The experiment in a line: Xenograft tumor growth inhibition assay (OPM-2). The format is in vivo, mice. Conditions: QDx21; for % TGI: OPM-2 xenograft, SCID-beige mice; for % removed from study: removed due to morbidity or weight loss in excess of 20%. As to the method: The effect of compounds of the examples to inhibit the growth of OPM-2 xenograft tumors implanted in mice was evaluated. A suspension of cancer cells (5×10^6 per 0.1 mL) prepared in RPMI culture medium (Invitrogen, Carlsbad, Calif.) was diluted 1:1 with a solution of Matrigel™ (BD Biosciences, Franklin Lakes, N.J.) and inoculated subcutaneously into the right hind flank of female SCID-beige (Charles River Labs) mice. Randomization into treatment and vehicle control groups (10/group) occurred when the mean tumor volume reached approximately 250 mm^3 Compounds were formulated in 10% EtOH, 30% PEG 400, 60% Phosol 53 MCT. Administration of compound or vehicle was initiated on the day following randomization and continued for 21 days.

The Ki is the dissociation constant of the complex between target and ligand, obtained from inhibition or displacement.

Marks after values point to notes of the source that are not given here.

Take `Cn1cc(-c2cc(S(C)(=O)=O)ccc2OC2CCC(F)(F)CC2)c2cc[nH]c(=O)c21` [Example 25, 3-{2-[(4,4-difluorocyclohexyl)oxy]-5-(methylsulfonyl)phenyl}-1-methyl-1,6-dihydro-7H-pyrrolo[2,3-c]pyridin-7-one]: the EC50 in series [1] was found to be 80 nM. The values for the inhibition constant (Ki) on BRD4 (BDI_K57-E168) and on BRD4 (BDII_E352-M457) were 14 nM and 60 nM, respectively. Moreover, the inhibition in vivo at 3 mg/kg in series [2] was found to be 62%.
With `Cn1cc(-c2cc(S(C)(=O)=O)ccc2Oc2ccc(F)cc2F)c2cc[nH]c(=O)c21` [Example 17, 3-[2-(2,4-difluorophenoxy)-5-(methylsulfonyl)phenyl]-1-methyl-1,6-dihydro-7H-pyrrolo[2,3-c]pyridin-7-one], the EC50 in series [1] turned out to be 107 nM. In addition, the Ki at BRD4 (BDI_K57-E168) amounted to 34 nM; at BRD4 (BDII_E352-M457), 38 nM. For the same molecule, the “% TGI” value is given as 60*** % with OPM-2 xenograft tumors (10 mg/kg PO) and 64*** % with OPM-2 xenograft tumors (30 mg/kg PO). Besides, the “% removed from study” value in the series with OPM-2 xenograft tumors (10 mg/kg PO) and in the series with OPM-2 xenograft tumors (30 mg/kg PO) was 10% in each case. Further, the inhibition in vivo at 3 mg/kg in series [2] is 49%.
In the case of `Cn1cc(-c2cc(NS(C)(=O)=O)c(F)cc2Oc2ccc(F)cc2F)c2cc[nH]c(=O)c21` [Example 11, N-[4-(2,4-difluorophenoxy)-2-fluoro-5-(1-methyl-7-oxo-6,7-dihydro-1H-pyrrolo[2,3-c]pyridin-3-yl)phenyl]methanesulfonamide], the EC50 in series [1] was 37 nM. The values for the Ki on BRD4 (BDI_K57-E168) and at BRD4 (BDII_E352-M457) were 8.9 nM and 31 nM, respectively. Besides, in series [2], the inhibition in vivo at 3 mg/kg was determined as 66%.
On to `Cn1cc(-c2cc(CS(C)(=O)=O)ccc2Oc2ccc(F)cc2F)c2cc[nH]c(=O)c21` [Example 52, 3-{2-(2,4-difluorophenoxy)-5-[(methylsulfonyl)methyl]phenyl}-1-methyl-1,6-dihydro-7H-pyrrolo[2,3-c]pyridin-7-one], for which the results for the Ki at BRD4 (BDI_K57-E168) and at BRD4 (BDII_E352-M457) were 4.6 nM and 7.1 nM, respectively. Further, the “% TGI” value in the series with OPM-2 xenograft tumors (1 mg/kg PO) is reported as 13%; with OPM-2 xenograft tumors (3 mg/kg PO), 16%. Also, the entries for the “% removed from study” value with OPM-2 xenograft tumors (1 mg/kg PO) and in the series on OPM-2 xenograft tumors (3 mg/kg PO) were 0% and 10%, respectively. Also, the inhibition in vivo at 3 mg/kg in series [2] is 77%.
Regarding `Cn1cc(-c2cc(NS(C)(=O)=O)ccc2Oc2ccc(C#N)cc2)c2cc[nH]c(=O)c21` [Example 16, N-[4-(4-cyanophenoxy)-3-(1-methyl-7-oxo-6,7-dihydro-1H-pyrrolo[2,3-c]pyridin-3-yl)phenyl]methanesulfonamide], the EC50 in series [1] is 59 nM. Moreover, the figures for the Ki on BRD4 (BDI_K57-E168) and at BRD4 (BDII_E352-M457) were 2.1 nM and 27 nM, respectively. Also, the inhibition in vivo at 3 mg/kg in series [2] was 69%.
Take `Cn1cc(-c2cc(S(C)(=O)=O)ccc2OCCC2CC2)c2cc[nH]c(=O)c21` [Example 32, 3-[2-(2-cyclopropylethoxy)-5-(methylsulfonyl)phenyl]-1-methyl-1,6-dihydro-7H-pyrrolo[2,3-c]pyridin-7-one]: the EC50 in series [1] amounted to 127 nM. The Ki was determined as 6.1 nM at BRD4 (BDI_K57-E168) and 11 nM at BRD4 (BDII_E352-M457). The inhibition in vivo at 3 mg/kg in series [2] turned out to be 33%.
In the case of `Cn1cc(-c2cc(CS(C)(=O)=O)cnc2Oc2ccc(F)cc2F)c2cc[nH]c(=O)c21` [Example 60, 3-{2-(2,4-difluorophenoxy)-5-[(methylsulfonyl)methyl]pyridin-3-yl}-1-methyl-1,6-dihydro-7H-pyrrolo[2,3-c]pyridin-7-one], in series [1], the EC50 stood at 37 nM. In addition, the results for the Ki at BRD4 (BDI_K57-E168) and on BRD4 (BDII_E352-M457) were 16 nM and 6.2 nM, respectively. In addition, in series [2], the inhibition in vivo at 3 mg/kg amounted to 62%.
The corresponding values for `CCS(=O)(=O)Cc1ccc(Oc2ccc(F)cc2F)c(-c2cn(C)c3c(=O)[nH]ccc23)c1` [Example 53, 3-{2-(2,4-difluorophenoxy)-5-[(ethylsulfonyl)methyl]phenyl}-1-methyl-1,6-dihydro-7H-pyrrolo[2,3-c]pyridin-7-one] are 39 nM, 3.2 nM, 6.6 nM and 74%.
